Measurements as given in patent publication US20220249447A1, “CF3-, OCF3-, SCF3-, and SF5-Containing Antibacterial Agents” (Purdue Research Foundation, priority 2019, published 2022).
In brackets after ≈: the same amount, converted by molar mass.

How the values were obtained:
S. aureus = test: MIC, broth microdilution, S. aureus; format: cell-based; settings: Staphylococcus aureus
Description: (§1) Bacteria were cultured in cation-adjusted Mueller Hinton Broth (for strains in Tables 1-3) or Brain Heart Infusion broth (for Enterococcus faecium) or Tryptic Soy Broth (all other bacteria) in a 96-well plate at 37° C. for at least 20 hours. The MIC was classified as the lowest concentration where no visual growth of bacteria was observed. The minimum bactericidal concentration (MBC) was tested by spotting 4 μL from wells with no growth onto Tryptic Soy Agar (TSA) plates. Plates were incubated at 37° C. for at least 18 hours before recording the MBC.

MRSA ATCC 33592 = test: MIC, broth microdilution, MRSA ATCC 33592; format: cell-based, methicillin-resistant S. aureus; settings: Staphylococcus aureus
Description: All MRSA isolates were acquired from BEI Resources. The remaining bacteria were purchased from the American Type Culture Collection (ATCC).
as §1

[1] = system: Neisseria gonorrhea strain 181; test: MIC against Neisseria gonorrhea strain 181; format: cell-based
Description: as §1

[2] = system: C. difficile NR-13432 (isolate 6); test: MIC against C. difficile NR-13432 (isolate 6); format: cell-based; settings: Clostridioides difficile; read-out: MIC C. difficile NR-13432 (isolate 6)
Description: as §1

[3] = system: C. difficile NR-32891 (P13); test: MIC against C. difficile NR-32891 (P13); format: cell-based; settings: Clostridioides difficile; read-out: MIC C. difficile NR-32891 (P13)
Description: as §1

[4] = system: C. difficile NR-32904 (P30); test: MIC against C. difficile NR-32904 (P30); format: cell-based; settings: Clostridioides difficile; read-out: MIC C. difficile NR-32904 (P30)
Description: as §1

[5] = system: C. difficile NR-32895 (P19); test: MIC against C. difficile NR-32895 (P19); format: cell-based; settings: Clostridioides difficile; read-out: MIC C. difficile NR-32895 (P19)
Description: as §1

[6] = system: C. difficile NR-32883 (P2); test: MIC against C. difficile NR-32883 (P2); format: cell-based; settings: Clostridioides difficile; read-out: MIC C. difficile NR-32883 (P2)
Description: as §1

C. difficile ATCC 43255 = test: MIC against C. difficile ATCC 43255; format: cell-based; settings: Clostridioides difficile, ATCC43255; read-out: MIC C. difficile ATCC 43255
Description: as §1

[7] = system: C. difficile NR-13435 (isolate 9); test: MIC against C. difficile NR-13435 (isolate 9); format: cell-based; settings: Clostridioides difficile; read-out: MIC C. difficile NR-13435 (isolate 9)
Description: as §1

[8] = system: C. difficile ATCC BAA 1801; test: MIC against C. difficile ATCC BAA 1801; format: cell-based; settings: Clostridioides difficile, BAA1801; read-out: MIC C. difficile ATCC BAA 1801
Description: as §1

VRE ATCC 51575 = test: MIC, broth microdilution, VRE ATCC 51575; format: cell-based; settings: Enterococcus
Description: as §1

[9] = system: L. monocytogenes ATCC 19115; test: MIC, broth microdilution, L. monocytogenes ATCC 19115; format: cell-based; settings: Listeria monocytogenes, ATCC19115
Description: as §1

E. faecalis ATCC 29212 = test: MIC, broth microdilution, E. faecalis ATCC 29212; format: cell-based; settings: Enterococcus faecalis, ATCC29212
Description: as §1

O=C(Nc1nnc(-c2cccc(C(F)(F)F)c2)o1)c1ccc(SC(F)(F)F)cc1 [HSGN-253, N-(5-(3-(trifluoromethyl)phenyl)-1,3 ,4-oxadiazol-2-yl)-4-((trifluoromethyl)thio)benzamide]
MIC (S. aureus): 0.25 µg/mL (≈ 0.577 µM) | MIC (MRSA ATCC 33592): 0.125 µg/mL (≈ 0.288 µM) | MIC [1]: 2 µg/mL (≈ 4.62 µM)

O=C(Nc1nnc(-c2cccc(Br)c2)o1)c1ccc(SC(F)(F)F)cc1 [HSGN-217, N-(5-(3-bromophenyl)-1,3,4-oxadiazol-2-yl)-4-((trifluoromethyl)thio)benzamide]
MIC [2]: 0.06 µg/mL (≈ 0.135 µM) | MIC (S. aureus): 0.5 µg/mL (≈ 1.13 µM) | MIC [3]: 0.125 µg/mL (≈ 0.281 µM) | MIC (MRSA ATCC 33592): 0.5 µg/mL (≈ 1.13 µM) | MIC [4]: 0.125 µg/mL (≈ 0.281 µM) | MIC [5]: 0.125 µg/mL (≈ 0.281 µM) | MIC [1]: 0.25 µg/mL (≈ 0.563 µM) | MIC [6]: 0.06 µg/mL (≈ 0.135 µM) | MIC (C. difficile ATCC 43255): 0.06 µg/mL (≈ 0.135 µM) | MIC [7]: 0.06 µg/mL (≈ 0.135 µM) | MIC [8]: 0.06 µg/mL (≈ 0.135 µM)

O=C(Nc1nnc(-c2ccc(Cl)s2)o1)c1ccc(OC(F)(F)F)cc1 [HSGN-238, N-(5-(5-chlorothiophen-2-yl)-1,3,4-oxadiazol-2-yl)-4-(trifluoromethoxy)benzamide]
MIC [2]: 0.03 µg/mL (≈ 0.077 µM) | MIC (VRE ATCC 51575): 1 µg/mL (≈ 2.57 µM) | MIC (S. aureus): 0.25 µg/mL (≈ 0.641 µM) | MIC [3]: 0.06 µg/mL (≈ 0.154 µM) | MIC (MRSA ATCC 33592): 0.25 µg/mL (≈ 0.641 µM) | MIC [4]: 0.015 µg/mL (≈ 0.0385 µM) | MIC [5]: 0.015 µg/mL (≈ 0.0385 µM) | MIC [9]: 0.5 µg/mL (≈ 1.28 µM) | MIC [1]: 0.125 µg/mL (≈ 0.321 µM) | MIC [6]: 0.007 µg/mL (≈ 0.018 µM) | MIC (E. faecalis ATCC 29212): 1 µg/mL (≈ 2.57 µM) | MIC (C. difficile ATCC 43255): 0.06 µg/mL (≈ 0.154 µM) | MIC [7]: 0.015 µg/mL (≈ 0.0385 µM) | MIC [8]: 0.03 µg/mL (≈ 0.077 µM)

O=C(Nc1nnc(-c2cccc(F)c2)o1)c1ccc(SC(F)(F)F)cc1 [HSGN-205, N-(5-(3-fluorophenyl)-1,3,4-oxadiazol-2-yl)-4-((trifluoromethyl)thio)benzamide]
MIC [2]: 0.03 µg/mL (≈ 0.0783 µM) | MIC (VRE ATCC 51575): 4 µg/mL (≈ 10.4 µM) | MIC (S. aureus): 0.5 µg/mL (≈ 1.3 µM) | MIC [3]: 0.03 µg/mL (≈ 0.0783 µM) | MIC (MRSA ATCC 33592): 0.25 µg/mL (≈ 0.652 µM) | MIC [4]: 0.015 µg/mL (≈ 0.0391 µM) | MIC [5]: 0.007 µg/mL (≈ 0.0183 µM) | MIC [9]: 1 µg/mL (≈ 2.61 µM) | MIC [1]: 0.25 µg/mL (≈ 0.652 µM) | MIC [6]: 0.003 µg/mL (≈ 0.00783 µM) | MIC (E. faecalis ATCC 29212): 2 µg/mL (≈ 5.22 µM) | MIC (C. difficile ATCC 43255): 0.003 µg/mL (≈ 0.00783 µM) | MIC [7]: 0.007 µg/mL (≈ 0.0183 µM) | MIC [8]: 0.03 µg/mL (≈ 0.0783 µM)

O=C(Nc1nnc(-c2cccc(F)c2)o1)c1ccc(OC(F)(F)F)cc1 [HSGN-237, N-(5-(3-fluorophenyl)-1,3,4-oxadiazol-2-yl)-4-(trifluoromethoxy)benzamide]
MIC [2]: 0.06 µg/mL (≈ 0.163 µM) | MIC (VRE ATCC 51575): 1 µg/mL (≈ 2.72 µM) | MIC (S. aureus): 0.5 µg/mL (≈ 1.36 µM) | MIC [3]: 0.125 µg/mL (≈ 0.34 µM) | MIC (MRSA ATCC 33592): 0.5 µg/mL (≈ 1.36 µM) | MIC [4]: 0.03 µg/mL (≈ 0.0817 µM) | MIC [5]: 0.03 µg/mL (≈ 0.0817 µM) | MIC [9]: 0.5 µg/mL (≈ 1.36 µM) | MIC [1]: 0.125 µg/mL (≈ 0.34 µM) | MIC [6]: 0.03 µg/mL (≈ 0.0817 µM) | MIC (E. faecalis ATCC 29212): 1 µg/mL (≈ 2.72 µM) | MIC (C. difficile ATCC 43255): 0.03 µg/mL (≈ 0.0817 µM) | MIC [7]: 0.03 µg/mL (≈ 0.0817 µM) | MIC [8]: 0.06 µg/mL (≈ 0.163 µM)

O=C(Nc1nnc(-c2ccc(C(F)(F)F)cc2)o1)c1ccc(SC(F)(F)F)cc1 [HSGN-203, N-(5-(4-(trifluoromethyl)phenyl)-1,3,4-oxadiazol-2-yl)-4-((trifluoromethyl)thio)benzamide]
MIC [2]: 0.125 µg/mL (≈ 0.288 µM) | MIC (VRE ATCC 51575): 0.5 µg/mL (≈ 1.15 µM) | MIC (S. aureus): 0.25 µg/mL (≈ 0.577 µM) | MIC [3]: 0.125 µg/mL (≈ 0.288 µM) | MIC (MRSA ATCC 33592): 0.25 µg/mL (≈ 0.577 µM) | MIC [4]: 0.125 µg/mL (≈ 0.288 µM) | MIC [5]: 0.06 µg/mL (≈ 0.138 µM) | MIC [9]: 0.5 µg/mL (≈ 1.15 µM) | MIC [1]: 0.5 µg/mL (≈ 1.15 µM) | MIC [6]: 0.06 µg/mL (≈ 0.138 µM) | MIC (E. faecalis ATCC 29212): 1 µg/mL (≈ 2.31 µM) | MIC (C. difficile ATCC 43255): 0.25 µg/mL (≈ 0.577 µM) | MIC [7]: 0.06 µg/mL (≈ 0.138 µM) | MIC [8]: 0.125 µg/mL (≈ 0.288 µM)

O=C(Nc1nnc(-c2cccc(Cl)c2)o1)c1ccc(SC(F)(F)F)nc1 [HSGN-247, N-(5-(3-chlorophenyl)-1,3,4-oxadiazol-2-yl)-6-((trifluoromethyl)thio)nicotinamide]
MIC (S. aureus): 0.5 µg/mL (≈ 1.25 µM) | MIC (MRSA ATCC 33592): 0.5 µg/mL (≈ 1.25 µM) | MIC [1]: 0.125 µg/mL (≈ 0.312 µM) | MIC [8]: 0.015 µg/mL (≈ 0.0374 µM)

O=C(Nc1nnc(-c2cc(Cl)cc(Cl)c2)o1)c1ccc(SC(F)(F)F)cc1 [HSGN-218, N-(5-(3,5-dichlorophenyl)-1,3,4-oxadiazol-2-yl)-4-((trifluoromethyl)thio)benzamide]
MIC [2]: 0.03 µg/mL (≈ 0.0691 µM) | MIC (VRE ATCC 51575): 0.25 µg/mL (≈ 0.576 µM) | MIC (S. aureus): 0.0625 µg/mL (≈ 0.144 µM) | MIC [3]: 0.007 µg/mL (≈ 0.0161 µM) | MIC (MRSA ATCC 33592): 0.0625 µg/mL (≈ 0.144 µM) | MIC [4]: 0.007 µg/mL (≈ 0.0161 µM) | MIC [5]: 0.007 µg/mL (≈ 0.0161 µM) | MIC [9]: 0.125 µg/mL (≈ 0.288 µM) | MIC [1]: 0.125 µg/mL (≈ 0.288 µM) | MIC [6]: 0.007 µg/mL (≈ 0.0161 µM) | MIC (E. faecalis ATCC 29212): 0.25 µg/mL (≈ 0.576 µM) | MIC (C. difficile ATCC 43255): 0.015 µg/mL (≈ 0.0345 µM) | MIC [7]: 0.003 µg/mL (≈ 0.00691 µM) | MIC [8]: 0.03 µg/mL (≈ 0.0691 µM)
